Source: patent US5268374A, “Non-peptide renin inhibitors” (Abbott Laboratories, priority 1991, dated 1993)

These compounds were tested against T1, human renal renin (Homo sapiens, UniProt P00797) (assay: Inhibition of human renal renin in vitro (angiotensin I formation by radioimmunoassay)). Settings: human renal renin, 37 degrees C, pH 6.0; read-out: IC50.
T1 construct: from tissue; host or cells: human kidney (read from the word 'renal'; no preparation is printed)
T1 sequence (P00797 67-406): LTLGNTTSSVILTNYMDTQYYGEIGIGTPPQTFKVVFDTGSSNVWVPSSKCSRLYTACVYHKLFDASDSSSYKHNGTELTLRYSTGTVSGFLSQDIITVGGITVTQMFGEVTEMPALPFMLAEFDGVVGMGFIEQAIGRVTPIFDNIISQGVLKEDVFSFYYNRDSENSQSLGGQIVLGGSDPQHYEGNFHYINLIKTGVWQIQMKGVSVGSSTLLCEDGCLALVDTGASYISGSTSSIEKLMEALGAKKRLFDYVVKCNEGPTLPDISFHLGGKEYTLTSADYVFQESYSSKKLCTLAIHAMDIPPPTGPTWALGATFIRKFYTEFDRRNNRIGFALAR
Format: biochemical

Structure (SMILES) | IC50
CC(C)C[C@H](O)[C@H](O)[C@H](CC1CCCCC1)NC(=O)[C@H](C)O[C@@H](Cc1ccccc1)C(=O)N1CCCCC1 [Example 89, 2(S)-(1(S)-(N-Piperidinylcarbonyl)-2-phenylethoxy)propionic acid Amide of 2(S)-Amino-1-cyclohexyl-3(R),4(S)-dihydroxy-6-methylheptane] | 15 nM
CCCC[C@H](O[C@@H](Cc1ccccc1)C(=O)N1CCC(OCOC)CC1)C(=O)N[C@@H](CC1CCCCC1)[C@@H](O)[C@@H](O)CC(C)C [Example 93, 2(S)-(1(S)-(4-(Methoxymethoxy)piperidin-1-yl-carbonyl)-2-phenylethoxy)hexanoic acid Amide of 2(S)-Amino-1-cyclohexyl-3(R),4(S)-dihydroxy-6-methylheptane] | 1.1 nM
COCOC1CCN(C(=O)[C@H](Cc2ccccc2)O[C@@H](C)C(=O)N[C@@H](CC2CCCCC2)[C@@H](O)[C@@H](O)CC(C)C)CC1 [Example 94, 2(S)-(1(S)-(4-(Methoxymethoxy)piperidinyl-1-yl-carbonyl)-2-phenylethoxy)propionic acid Amide of 2(S)-Amino-1-cyclohexyl-3(R),4(S)-dihydroxy-6-methylheptane] | 1.3 nM
CCCCNC(=O)[C@@H](C[C@H](O)[C@H](CC1CCCCC1)NC(=O)[C@H](CCCC)O[C@@H](Cc1ccccc1)C(=O)N1CCC(OCOC)CC1)C(C)C [Example 96, 2(S)-(1(S)-(4-(Methoxymethoxy)piperidin-1-yl-carbonyl)-2-phenylethoxy)hexanoic acid Amide of 2(S)-Amino-1-cyclohexyl-3(S)-hydroxy-5(S)-n-butylcarbamoyl-6-methylheptane] | 1.5 nM
CCCC[C@H](O[C@@H](Cc1ccccc1)C(=O)N1CCC(OCOC)CC1)C(=O)N[C@@H](CC1CCCCC1)[C@@H](O)[C@@H]1CN(CC)C(=O)O1 [Example 108, 2(S)-(1(S)-(4-(Methoxymethoxy)piperidin-1-yl-carbonyl)-2-phenylethoxy)hexanoic acid Amide of (2's,1'R,5S)-3-Ethyl-5-(1'-hydroxy-2'-amino-3'-cyclohexylpropyl)oxazolidin-2-one] | 0.87 nM
CCCC[C@H](O[C@@H](Cc1ccccc1)C(=O)N1CCC(OCOC)CC1)C(=O)N[C@@H](CC1CCCCC1)[C@@H](O)C[C@H](C(=O)NCCCn1ccnc1)C(C)C [Example 116, 2(S)-(1(S)-(4-(Methoxymethoxy)piperidin-1-yl)carbonyl-2-phenyl)ethoxyhexanoic acid amide of 3-(1-imidazolyl)propyl 5(S)-amino-6-cyclohexyl-4(S)-hydroxy-2(S)-isopropylhexanamide] | 1.3 nM

More lines, now with the values ahead:

IC50 | Structure (SMILES)
9 nM | CCCC[C@H](N[C@@H](Cc1ccccc1)C(=O)N1CCOCC1)C(=O)N[C@@H](CC1CCCCC1)[C@@H](O)[C@@H](O)CC(C)C [Example 69, N-(1(S)-(4-Morpholinylcarbonyl)-2-phenylethyl)-L-norleucyl Amide of 2(S)-Amino-1-cyclohexyl-3(R),4(S)-dihydroxy-6-methylheptane]
5.5 nM | CC(C)C[C@H](O)[C@H](O)[C@H](CC1CCCCC1)NC(=O)[C@H](C)O[C@@H](Cc1ccccc1)C(=O)N1CCC1 [Example 87, 2(S)-(1(S)-(N-Azetidinylcarbonyl)-2-phenylethoxy)propionic acid Amide of 2(S)-Amino-1-cyclohexyl-3(R),4(S)-dihydroxy-6-methylheptane]
12 nM | CC(C)C[C@H](O)[C@H](O)[C@H](CC1CCCCC1)NC(=O)[C@H](C)O[C@@H](Cc1ccccc1)C(=O)N1CCCC1 [Example 88, 2(S)-(1(S)-(N-Pyrolidinylcarbonyl)-2-phenylethoxy)propionic acid Amide of 2(S)-Amino-1-cyclohexyl-3(R),4(S)-dihydroxy-6-methylheptane]
3.9 nM | CCCCNC(=O)[C@@H](C[C@H](O)[C@H](CC1CCCCC1)NC(=O)[C@H](C)O[C@@H](Cc1ccccc1)C(=O)N1CCOCC1)C(C)C [Example 91, 2(S)-(1(S)-(4-Morpholinylcarbonyl)-2-phenylethoxy)propionic acid Amide of 2(S)-Amino-1-cyclohexyl-3(S)-hydroxy-5(S)-n-butylcarbamoyl-6-methylheptane]
